Assay results reported in US20260240166A1, “ANTIMICROBIAL AND ANTIVIRAL, BIOLOGICALLY ACTIVE POLYMER COMPOSITES EFFECTIVE AGAINST SARS-COV-2 AND OTHER VIRAL, BACTERIAL AND FUNGAL TARGETS, AND RELATED METHODS, MATERIALS, COATINGS AND DEVICES” (priority 2019, published 2026).

Test: Thermogravimetric analysis (thermal stability)
Type: physicochemical
Conditions: thermogravimetric profile (FIG. 6)

Substance: benzalkonium chloride
- temperature to which stable / at which decomposition begins (TGA): about 200 °C
